Where “and” joins values, the source holds several entries; their conditions need not be identical. Identical values can stand only once.
Key:
[1] = 100 kPa, Liquid; for speed of sound: Frequency=3 MHz, Single path-length method; for mass density: Vibrating tube method
[2] = refractive index (Na D-line) (dimensionless); conditions: 100 kPa, Liquid, Standard Abbe refractometry
[3] = refractive index (Na D-line) (dimensionless); xn = mol fraction of the nth substance listed; conditions: 100 kPa, Liquid, Standard Abbe refractometry, x1 = 1
[4] = xn = mol fraction of the nth substance listed; conditions: 100 kPa, Liquid, x1 = 1; for speed of sound: Frequency=3 MHz, Single path-length method; for mass density: Vibrating tube method

CCOCCO [2-ethoxyethan-1-ol]
Conditions	mass density, [1] [kg/m3]	refractive index, [2]	speed of sound, [1]
298.15 K	925.54	1.4055	1302.8 m/s
303.15 K	920.99	1.4042	1285 m/s
308.15 K	916.41	1.4028	1267.3 m/s
313.15 K	911.8	1.4016	1249.6 m/s
318.15 K	907.15	1.4001	1232 m/s and 1231.5 m/s
323.15 K	902.46	1.3988	1214.3 m/s

COCCO [2-methoxyethan-1-ol]
Conditions	mass density, [1] [kg/m3]	refractive index, [2]	speed of sound, [1] [m/s]
298.15 K	960.32	1.4001	1342.1
303.15 K	955.71	1.3981	1324.7
308.15 K	951.08	1.3961	1307.4
313.15 K	946.42	1.3943	1290
318.15 K	941.72	1.3922	1272.7
323.15 K	936.89	1.3902	1255.4

CCOC(=O)OCC [diethyl carbonate] + CCOCCO
Conditions	mass density, [4] [kg/m3]	refractive index, [3]	speed of sound, [4] [m/s]
298.15 K	969.1	1.3825	1177.5
303.15 K	963.47	1.3802	1156.9
308.15 K	957.81	1.3779	1136.6
313.15 K	952.13	1.3756	1116.5
318.15 K	946.43	1.3733	1096.5
323.15 K	940.69	1.371	1076.7

CCOC(=O)OCC [diethyl carbonate] + CCCOCCO
Conditions	mass density, [4] [kg/m3]	refractive index, [3]	speed of sound, [4] [m/s]
298.15 K	969.1	1.3825	1177.5
303.15 K	963.47	1.3802	1156.9
308.15 K	957.81	1.3779	1136.6
313.15 K	952.13	1.3756	1116.5
318.15 K	946.43	1.3733	1096.5
323.15 K	940.69	1.371	1076.7

CCOC(=O)OCC [diethyl carbonate] + COCCO
Conditions	mass density, [4] [kg/m3]	refractive index, [3]	speed of sound, [4] [m/s]
298.15 K	969.1	1.3825	1177.5
303.15 K	963.47	1.3802	1156.9
308.15 K	957.81	1.3779	1136.6
313.15 K	952.13	1.3756	1116.5
318.15 K	946.43	1.3733	1096.5
323.15 K	940.69	1.371	1076.7

Reference: the NIST ThermoML archive (doi:10.1016/j.jct.2016.11.002)
